The results in this text go back to article PMC5218480 (PLoS ONE, 2017).

The subject of assay [1] is HL-60 cells. Kind of assay: Cell viability assay (CellTiter-Glo). Conditions: read-out: IC50 cell viability HL-60; 72 hours.
Experimental: MV-4-11, Kasumi-1, and HL-60 AML cell lines were all obtained from ATCC. MOLM-13 and NB-4 cell lines were obtained from DSMZ. […] The identity of each cell line was validated and documented by the suppliers. All experiments were performed with cells maintained at low passage numbers.
Compounds and/or solvent dimethyl sulfoxide (DMSO) were added at the same time using an HP D300 digital dispenser (Hewlett Packard) in triplicate or quadruplicate and incubated for 72 hours at 37°C. Viability was measured by adding 25 μL CellTiter-Glo (Promega), incubating for 10 minutes, and measuring luminescence on a SpectraMax (Molecular Devices). […] CI < 1 indicates synergism, CI = 1 indicates additivity, and CI > 1 indicates antagonism.
The target in assay [2] is T1, HDAC6 (Homo sapiens, UniProt Q9UBN7).
T1 construct: purchased BPS Biosciences
T1 sequence (Q9UBN7 1-1215): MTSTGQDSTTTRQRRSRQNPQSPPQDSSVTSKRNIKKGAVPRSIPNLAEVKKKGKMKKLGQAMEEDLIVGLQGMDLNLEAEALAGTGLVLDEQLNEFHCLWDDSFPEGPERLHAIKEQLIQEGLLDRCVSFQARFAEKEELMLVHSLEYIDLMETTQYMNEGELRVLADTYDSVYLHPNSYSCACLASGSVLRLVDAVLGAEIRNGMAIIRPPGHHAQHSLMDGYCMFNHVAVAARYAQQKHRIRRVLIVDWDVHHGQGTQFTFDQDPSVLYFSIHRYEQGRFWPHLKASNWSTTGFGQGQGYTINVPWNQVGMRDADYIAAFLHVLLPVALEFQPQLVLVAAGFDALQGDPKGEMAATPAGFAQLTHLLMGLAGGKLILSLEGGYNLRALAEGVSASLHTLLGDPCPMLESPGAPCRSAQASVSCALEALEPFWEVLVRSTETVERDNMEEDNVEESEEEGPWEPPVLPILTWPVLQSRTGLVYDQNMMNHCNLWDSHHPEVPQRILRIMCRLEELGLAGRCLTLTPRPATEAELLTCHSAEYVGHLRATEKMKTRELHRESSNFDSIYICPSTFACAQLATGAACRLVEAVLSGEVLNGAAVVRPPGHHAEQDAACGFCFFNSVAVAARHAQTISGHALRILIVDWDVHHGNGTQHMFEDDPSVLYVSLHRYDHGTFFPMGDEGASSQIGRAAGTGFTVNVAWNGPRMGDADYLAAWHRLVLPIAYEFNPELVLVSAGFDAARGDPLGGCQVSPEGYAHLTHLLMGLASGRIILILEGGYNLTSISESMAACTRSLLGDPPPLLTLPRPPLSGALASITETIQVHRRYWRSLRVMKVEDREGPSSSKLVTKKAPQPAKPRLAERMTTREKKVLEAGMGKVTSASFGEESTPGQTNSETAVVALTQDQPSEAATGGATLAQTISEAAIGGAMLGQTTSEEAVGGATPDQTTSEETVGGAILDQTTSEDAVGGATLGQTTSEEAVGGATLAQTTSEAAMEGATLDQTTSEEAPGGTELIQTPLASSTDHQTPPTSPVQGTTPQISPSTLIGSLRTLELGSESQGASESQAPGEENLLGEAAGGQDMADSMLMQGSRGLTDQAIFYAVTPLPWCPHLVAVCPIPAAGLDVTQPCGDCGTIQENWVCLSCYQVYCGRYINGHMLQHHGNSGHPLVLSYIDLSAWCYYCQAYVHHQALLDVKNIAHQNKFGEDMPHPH
Kind of assay: HDAC enzyme assay, in vitro biochemical. Particulars: maximum concentration tested of 20 μM. On the procedure:
In vitro biochemical assays were performed as described previously. Specifically, compounds were dissolved and diluted in assay buffer (50 mM HEPES, pH 7.4, 100 mM KCl, 0.001% Tween-20, 0.05% BSA, and 20 μM Tris (2-carboxyethyl) phosphine) to 6-fold the final concentration. […] The amount of substrate (acetyl-lysine tripeptide) used for each enzyme was equal to the Michaelis constant (Km), as determined by a titration curve. Substrate was diluted in assay buffer to 6-fold of the final concentration with 0.3 μM sequencing grade trypsin (Sigma-Aldrich). The substrate/trypsin mix was added to the enzyme/compound mix and the plate was shaken for 5 seconds and then placed into a SpectraMax M5 microtiter (Molecular Devices) plate reader. The enzymatic reaction was monitored over 30 minutes for release of […] after deacetylation of the lysine side chain in the peptide substrate, and the linear rate of the reaction was calculated.
biochemical assay for HDAC4, HDAC5, HDAC6, HDAC7, HDAC8, HDAC9 inhibition by ACY-1035.
(1 picture or pasted object on this page, not shown here)

For the molecule `Nc1ccc(-c2cccs2)cc1NC(=O)c1ccc2c(c1)cc(C1CC1)n2CCN1CCOCC1` [ACY-1035], the IC50 in assay [1] was determined as 3.3 µM. Besides, the “inhibition of HDAC6” value in assay [2] is listed as “did not inhibit”.
